Counter-ions that a name gives are not always drawn.
Assays:
[1] = tested on: gram negative bacteria; experiment: CSA-44/saline formulation study, intramammary treatment of clinical mastitis, gram negative; format: in vivo, lactating dairy cattle; conditions: CSA-44 120 mg x3 or cephapirin sodium 200 mg x2 intramammary, 11 days post-treatment
Experimental: (§1) A second dose characterization study was conducted using a non-final (saline) formulation of CSA-44 hydrochloride. The study enabled the selection of a dose to be used in the dose confirmation (field) study, which was conducted using the saline formulation of CSA-44 hydrochloride.
(§2) The objective of this study was to evaluate the effectiveness of intramammary administered CSA-44, as a saline based formulation, for the treatment of clinical mastitis in lactating dairy cows.
(§3) The objective was to evaluate the effectiveness of intramammary infusion of CSA-44 hydrochloride sterile suspension three times at a 24-hour interval at 120.0 mg dosage in the affected quarter in comparison to a negative control or 200 mg of cephapirin sodium activity in a stable peanut oil gel for the treatment of clinical mastitis in lactating dairy cattle.
(§4) A total of 151 cows from 2 herds were enrolled. Cows were enrolled in the study when they had visually abnormal milk (clots, flakes, or watery secretion) or if udder swelling, heat, pain or redness were present and milk was not yet visually abnormal, but the California Mastitis Test (CMT) gave results of 2 or greater. A pre-treatment milk sample was obtained from each affected quarter(s) and cultured for the presence of organisms associated with mastitis; the culture data were not available prior to treatment assignments.
(§5) Cows were assigned in blocks of three to receive either 120 mg CSA-44 HCl, 200 mg cephapirin sodium, or no treatment. Enrollment was restricted to cows with one quarter affected with clinical mastitis.
(§6) CSA-44 (120 mg) or cephapirin sodium (200 mg) was administered as an intramammary infusion three times or two times, respectively, at a 24-hour interval beginning on the day of enrollment (Day 0). Cows assigned to the control group were left untreated. […]. Cows in their second or greater lactation, with an elevated somatic cell count (SCC) and either a positive milk culture for a mastitis pathogen or signs of clinical mastitis were assigned to one of three treatment groups. A quarter was considered cured if there were no clinical signs of mastitis, visibly normal milk, and a negative milk culture 11 days post-treatment. Using these criteria, cure rates for all mastitis cases were 28.0% (Control-0 mg), 63.0% (cephapirin sodium, 200 mg), and 75.0% (CSA-44, 120 mg).
Test data for gram negative bacteria are set forth in Table 2 below and graphically illustrated in FIG. 2B.

[2] = tested on: gram positive bacteria; experiment: CSA-44/saline formulation study, intramammary treatment of clinical mastitis, gram positive; format: in vivo, lactating dairy cattle; conditions: CSA-44 120 mg x3 or cephapirin sodium 200 mg x2 intramammary, 11 days post-treatment
Experimental: as §1, §2, §3, §4, §5, §6
Test data for gram positive bacteria are set forth in Table 1 below and graphically illustrated in FIG. 2A.

[3] = tested on: combined gram positive and gram negative bacteria; experiment: CSA-44/saline formulation study, intramammary treatment of clinical mastitis, all cases; format: in vivo, lactating dairy cattle; conditions: for cure rate for all mastitis cases: CSA-44 120 mg three times or cephapirin sodium 200 mg two times, intramammary, 24-hour interval, cured = no clinical signs, visibly normal milk, negative milk culture 11 days post-treatment; for % Cure / Cure (number) / Not Cure (number): combined gram positive and gram negative, CSA-44 120 mg x3 or cephapirin sodium 200 mg x2 intramammary, 11 days post-treatment
Experimental: as §1, §2, §3, §4, §5, §6
Test data for combined gram positive and gram negative bacteria are set forth in Table 3 below and graphically illustrated in FIG. 2C.

[4] = Animal safety: udder irritation after intramammary infusion of CSA-44 sterile saline suspension; format: in vivo, lactating female Holstein dairy cattle; conditions: 120 mg
Experimental: The purpose of this example was to study the effects on dairy cows relative to udder irritation of intramammary infusion of a sterile formulation of CSA-44 containing either […] of CSA-44 per 10 mL plastet into both front quarters. More particularly, the study evaluated the safety of intramammary infusion of 120 mg, 150 mg and 200 mg CSA-44 hydrochloride sterile saline (0.9% NaCl) suspension, respectively, in each of two front quarters daily for three consecutive days with an approximate 24-hour interval between infusions.
Three lactating female Holstein dairy cattle ranging from 2 to 5 years of age and representing low milk producers (13.2 kg to 24.0 kg/day) and high milk producers (25.0 kg to 31.9 kg/day) were used in the study. Cows were enrolled based on the absence of mastitis pathogens, absence of clinical mastitis (normal strip cup and udder palpation), a somatic cell count (SCC) less than or equal to 200,000 per mL, and no edema or teat lesions.
Within each of the lactation/production subgroups (1st lactation high producers, 1st lactation low producers, ≧2nd lactation high producers, or ≧2nd lactation low producers), cows were assigned to receive either three doses of CSA-44 by intramammary infusion. There were no non-treated controls.
Following a 3-day pre-treatment clinical observation and milk sample collection period, animals received their assigned treatment. Measurements and observations continued during the treatment period and through Day 3 (60 hours) post treatment.
A CSA-44 sterile saline suspension (120 mg, 150 mg, or 200 mg) was administered as an intramammary infusion into both front quarters once at a 24-hour interval for three consecutive days. The following clinical and production measures were evaluated for a total of either 14 milkings: appearance of foremilk (strip cup evaluation), physical condition of udder, milk production, and general health.

[5] = Human food safety: total residue study of CSA-44 in bovine milk by HPLC with MS detection; format: in vivo, lactating Holstein cows; conditions: predicted; intramammary 120, 150 or 200 mg daily for three days
From the text: The objective of this study was to validate a method for the determination of CSA-44 in bovine milk by HPLC with MS detection. The protocol has been designed to fulfill the requirements outlined in the FDA/CVM Guidance for Industry #208^1. ^1Guidance for Industry #208: Studies to Evaluate the Metabolism and Residue Kinetics of Veterinary Drugs in Food-Producing Animals: Validation of Analytical Methods used in Residue Depletion Studies. VICH GL49. U.S. Department of Health and Human Services, Food and Drug Administration, Center for Veterinary Medicine. Sep. 15, 2011
A GLP-compliant total residue study was conducted in 3 healthy, lactating Holstein cows. Cows tested were in the middle of their 2nd or 3rd lactation. The more specific objective was to evaluate the safety of intramammary infusion of 120, 150 and 200 mg dosages of CSA-44 hydrochloride sterile saline (0.9% NaCl) suspension, respectively, in each of two front quarters daily for three consecutive days with an approximate 24-hour interval between infusions.
Three lactating female Holstein dairy cattle ranging from 2 to 5 years of age and representing low milk producers (13.2 kg to 24.0 kg/day) and high milk producers (25.0 kg to 31.9 kg/day) were used in the study. […]

[6] = tested on: Escherichia coli; experiment: Dose characterization study, CSA-44/propylene glycol formulation, intramammary treatment of clinical mastitis; format: in vivo, lactating dairy cows; conditions: 60 mg CSA-44 per quarter, infused eight to ten times at 12-hour interval; cured = no clinical signs 10 days post-treatment, milk visibly normal, SCC < 350,000 cells
Experimental: (§7) A first dose characterization study was conducted using CSA-44 hydrochloride with and without propylene glycol based in the formulation. This study enabled the selection of a dose to be used in a dose confirmation (field) study, which was conducted using two propylene glycol formulations and 60 mg of CSA-44 hydrochloride per 10 ml syringe.
(§8) The objective of this study was to evaluate the effectiveness of intramammary administered CSA-44, with and without propylene glycol as part of the formulation, for the treatment of clinical mastitis in lactating dairy cows.
(§9) A total of 42 cow quarters from Blue Star Dairy (BSD) were enrolled. Cows in their second or greater lactation, with an elevated somatic cell count (SCC) and either a positive milk culture for a mastitis pathogen or signs of clinical mastitis were assigned to one of two treatment groups: 1) ceftiofur hydrochloride administered 2-7 times, per label directions; and 2) 60 mg of CSA-44 per quarter, cows were infused eight to ten times at a 12-hour interval. A quarter was considered cured if there were no clinical signs of mastitis 10 days post-treatment, milk was visibly normal, and somatic cell count (SCC) was less than 350,000 cells. Using these criteria, cure rates for Group CSA treated cows were 87% for Staph. spp. (CNS and Staph. aureus), 90% for Escherichia coli, and 78% for Strep spp. (Streptococcus dysgalactiae, Strep. uberis, and Streptococcus sp).

[7] = tested on: Strep spp. (Streptococcus dysgalactiae, Strep. uberis, and Streptococcus sp); experiment: as above; format: in vivo, lactating dairy cows; conditions: 60 mg CSA-44 per quarter, infused eight to ten times at 12-hour interval; cured = no clinical signs 10 days post-treatment, milk visibly normal, SCC < 350,000 cells
Experimental: as §7, §8, §9

[8] = tested on: Staph. spp. (CNS and Staph. aureus); experiment: as above; format: in vivo, lactating dairy cows; conditions: 60 mg CSA-44 per quarter, infused eight to ten times at 12-hour interval; cured = no clinical signs 10 days post-treatment, milk visibly normal, SCC < 350,000 cells
Experimental: as §7, §8, §9

[9] = tested on: coagulase-negative staphylococci, Streptococcus dysgalactae, and Eshcherica coli; conditions: from Freedom Of Information Summary NADA 141-238, sterile suspension of ceftiofur hydrochloride; cited from earlier work
[10] = 150 mg or 200 mg in sterile saline, intramammary into both front quarters, once daily for three consecutive days

For `CC(=O)OCC1=C(C(=O)O)N2C(=O)[C@@H](NC(=O)CSc3ccncc3)[C@H]2SC1` [Cephapirin Sodium, cephapirin sodium, reference compound], the “% Cure” value [1] was 61%, the “Cure (number)” value [1] was 11 and the “Not Cure (number)” value [1] was 7. For the same compound, the “% Cure” value [2] was 62%, the “Cure (number)” value [2] was 21 and the “Not Cure (number)” value [2] was 13. The “cure rate for all mastitis cases” value [3] was 63.0%, the “% Cure” value [3] was 62% and the “Cure (number)” value [3] was 32. The “Not Cure (number)” value [3] was 20.
In the case of `CCCCCCCCOC(=O)CC[C@@H](C)[C@H]1CC[C@H]2[C@@H]3[C@H](OC(=O)CCN)C[C@@H]4C[C@H](OC(=O)CCN)CC[C@]4(C)[C@H]3C[C@H](OC(=O)CCN)[C@]12C` [CSA-44], the “% Cure” value [1] is reported as 84%, the “Cure (number)” value [1] is reported as 16 and the “Not Cure (number)” value [1] is reported as 3. The “milk quality appearance and strip cup response during treatment” value [4, 10] was “no change in milk quality”, the “udder physical condition scores, strip cup analyses, milk production (milk weight and percent milk fat) in response to treatment” value [4, 10] was “no overall differences” and the “clinical safety and irritation of mammary tissue” value ([4]; sterile saline formulation, 150 mg or 200 mg per 10 mL dose, infused once daily for up to three consecutive days) was “clinically safe and not irritating to the mammary tissue”. The “time until CSA-44 is undetectable in milk” value [5] was 60 to 72 h, the “time until residues in the milk are substantially depleted” value [5] was 24 to 48 h and the cure rate [6] was 90%. The cure rate [7] was 78%, the cure rate [8] was 87% and the “% Cure” value [2] was 70%. The “Cure (number)” value [2] was 29, the “Not Cure (number)” value [2] was 12 and the “cure rate for all mastitis cases” value [3] was 75.0%. For the same compound, the “% Cure” value [3] was 75%, the “Cure (number)” value [3] was 45 and the “Not Cure (number)” value [3] was 15.
For `CO/N=C(\C(=O)N[C@@H]1C(=O)N2C(C(=O)O)=C(CSC(=O)c3ccco3)CS[C@H]12)c1csc(N)n1` [Ceftiofur HCl, ceftiofur hydrochloride], the “% Cure” value [9] is given as 70%, the “Cure (number)” value [9] is given as 38 and the “Not Cure (number)” value [9] is given as 16.
